Reference: patent US5248689A, “Substituted N-(imidazolyl)alkyl alanine derivatives” (SmithKline Beecham Corporation, priority 1990, dated 1993)
Read-outs that look alike come from different tables or passages of the source.

Tests used:
[1] = tested on: conscious rats made renin dependent hypertensive by ligation of the left renal artery; test: antihypertensive activity in conscious renin dependent hypertensive (renal artery ligated) rats; type: in vivo; details: Rattus norvegicus, 7-8 days after ligation, read-out: IC30 (dose needed to reduce mean arterial pressure by 30 mm Hg)
Procedure: (§1) Angiotensin II antagonist activity of the compounds of Formulas (I) is assessed by in vitro and in vivo methods. In vitro antagonist activity is determined by the ability of the compounds to compete with ^125 I-angiotensin II for binding to vascular angiotensin II receptors and by their ability to antagonize the contractile response to angiotensin II in the isolated rabbit aorta. In vivo activity is evaluated by the efficacy of the compounds to inhibit the pressor response to exogenous angiotensin II in conscious rats and to lower blood pressure in a rat model of renin dependent hypertension.
The antihypertensive activity of the compounds is measured by their ability to reduce mean arterial pressure in conscious rats made renin dependent hypertensive by ligation of the left renal artery (Cangiano et al., J. Pharmacol. Exp. Ther. 208:310, 1979). Renal artery ligated rats are prepared with indwelling catheters as described above. Seven to eight days following renal artery ligation, the time at which plasma renin levels are highest, the conscious rats are placed in restrainers and mean arterial pressure is continuously recorded prior to and following the administration of the compounds intravenously or orally. The dose of compound needed to reduce mean arterial pressure by 30 mm Hg (IC30) is used as an estimate of potency. […]

[2] = tested on: pressor response to angiotensin II; test: inhibition of pressor response to angiotensin II in conscious rats; type: in vivo; details: Rattus norvegicus, intravenous angiotensin II 250 mg/kg [sic], read-out: IC50 (dose needed to produce 50% inhibition of the control response to angiotensin II)
Procedure: as §1
Rats are prepared with indwelling femoral arterial and venous catheters and a stomach tube (Gellai et al., KidneyInt. 15:419, 1979). Two to three days following surgery the rats are placed in a restrainer and blood pressure is continuously monitored from the arterial catheter with a pressure transducer and recorded on a polygraph. The change in mean arterial pressure in response to intravenous injections of […] angiotensin II is compared at various time points prior to and following the administration of the compounds intravenously or orally at doses of 3 to 300 mg/kg. The dose of compound needed to produce 50% inhibition of the control response to angiotensin II IC50) is used to estimate the potency of the compounds.

`CCCCc1ncc(CN[C@@](C)(Cc2cccs2)C(=O)O)n1Cc1ccccc1Cl` [Example 6, N-[{1-[(2-chlorophenyl)methyl]-2-n-butyl-1H-imidazol-5-yl}methyl]-α-methyl-β-(2-thienyl)alanine] gave an ED (30 mm Hg) ([1]; iv) of 15 mg/kg, an ED (30 mm Hg) ([1]; po, orally) of 70 mg/kg and an ED50 ([2]; i.v.) of 11 mg/kg. The ED50 ([2]; po, orally) was 45 mg/kg.
